How the values were obtained:
Format in all cases: functional
SF-268 [1] = test: Growth inhibition of human SF268 cells assessed as cell growth at 5X10'-5 M after 48 hrs by sulforhodamine B assay; details: SF-268, 48 h, read-out: Activity
MOLT-4 [2] = test: Growth inhibition of human MOLT4 cells assessed as cell growth at 5X10'-6 M after 48 hrs by sulforhodamine B assay; details: MOLT-4, 48 h, read-out: Activity
SK-MEL-2 [3] = test: Growth inhibition of human SK-MEL-2 cells assessed as cell growth at 5X10'-8 M after 48 hrs by sulforhodamine B assay; details: SK-MEL-2, 48 h, read-out: Activity
NCI-H226 = test: Growth inhibition of human NCI-H226 cells assessed as cell growth at 5X10'-6 M after 48 hrs by sulforhodamine B assay; details: NCI-H226, 48 h, read-out: Activity
M14 = test: Growth inhibition of human M14 cells assessed as cell growth at 5X10'-5 M after 48 hrs by sulforhodamine B assay; details: M14, 48 h, read-out: Activity
SK-OV-3 = test: Growth inhibition of human SKOV3 cells assessed as cell growth at 5X10'-6 M after 48 hrs by sulforhodamine B assay; details: SK-OV-3, 48 h, read-out: Activity
SK-MEL-28 [4] = test: Growth inhibition of human SK-MEL-28 cells assessed as cell growth at 5X10'-6 M after 48 hrs by sulforhodamine B assay; details: SK-MEL-28, 48 h, read-out: Activity
HCT-15 = test: Growth inhibition of human HCT15 cells assessed as cell growth at 5X10'-7 M after 48 hrs by sulforhodamine B assay; details: HCT-15, 48 h, read-out: Activity
UACC-62 [5] = test: Growth inhibition of human UACC62 cells assessed as cell growth at 5X10'-5 M after 48 hrs by sulforhodamine B assay; details: UACC-62, 48 h, read-out: Activity
RXF 393 = test: Growth inhibition of human RXF393 cells assessed as cell growth at 5X10'-6 M after 48 hrs by sulforhodamine B assay; details: RXF 393, 48 h, read-out: Activity
A549 [6] = test: Growth inhibition of human A549/ATCC cells assessed as cell growth at 5X10'-6 M after 48 hrs by sulforhodamine B assay; details: A549, 48 h, read-out: Activity
NCI-H322M = test: Growth inhibition of human NCI-H322M cells assessed as cell growth at 5X10'-7 M after 48 hrs by sulforhodamine B assay; details: read-out: Activity
U-251 = test: Growth inhibition of human U251 cells assessed as cell growth at 5X10'-9 M after 48 hrs by sulforhodamine B assay; details: U-251, 48 h, read-out: Activity
LOX IMVI = test: Growth inhibition of human LOXIMVI cells assessed as cell growth at 5X10'-9 M after 48 hrs by sulforhodamine B assay; details: read-out: Activity
[7] = Growth inhibition of human Hs 578T cells assessed as cell growth at 5X10'-7 M after 48 hrs by sulforhodamine B assay; details: read-out: Activity
MOLT-4 [8] = test: Growth inhibition of human MOLT4 cells assessed as cell growth at 5X10'-5 M after 48 hrs by sulforhodamine B assay; details: MOLT-4, 48 h, read-out: Activity
CAKI-1 = test: Growth inhibition of human CAKI-1 cells assessed as cell growth at 5X10'-7 M after 48 hrs by sulforhodamine B assay; details: CAKI-1, 48 h, read-out: Activity
Malme-3M = test: Growth inhibition of human MALME-3M cells assessed as cell growth at 5X10'-6 M after 48 hrs by sulforhodamine B assay; details: read-out: Activity
IGROV-1 = test: Growth inhibition of human IGROV1 cells assessed as cell growth at 5X10'-9 M after 48 hrs by sulforhodamine B assay; details: IGROV-1, 48 h, read-out: Activity
OVCAR-5 [9] = test: Growth inhibition of human OVCAR5 cells assessed as cell growth at 5X10'-5 M after 48 hrs by sulforhodamine B assay; details: OVCAR-5, 48 h, read-out: Activity
A549 [10] = test: Growth inhibition of human A549/ATCC cells assessed as cell growth at 5X10'-5 M after 48 hrs by sulforhodamine B assay; details: A549, 48 h, read-out: Activity
HT-29 = test: Growth inhibition of human HT-29 cells assessed as cell growth at 5X10'-6 M after 48 hrs by sulforhodamine B assay; details: HT-29, 48 h, read-out: Activity
MOLT-4 [11] = test: Growth inhibition of human MOLT4 cells assessed as cell growth at 5X10'-9 M after 48 hrs by sulforhodamine B assay; details: MOLT-4, 48 h, read-out: Activity
ACHN = test: Growth inhibition of human ACHN cells assessed as cell growth at 5X10'-6 M after 48 hrs by sulforhodamine B assay; details: read-out: Activity
BT-549 [12] = test: Growth inhibition of human BT549 cells assessed as cell growth at 5X10'-5 M after 48 hrs by sulforhodamine B assay; details: BT-549, 48 h, read-out: Activity
OVCAR-5 [13] = test: Growth inhibition of human OVCAR5 cells assessed as cell growth at 5X10'-8 M after 48 hrs by sulforhodamine B assay; details: OVCAR-5, 48 h, read-out: Activity
HCT-116 = test: Growth inhibition of human HCT116 cells assessed as cell growth at 5X10'-7 M after 48 hrs by sulforhodamine B assay; details: HCT-116, 48 h, read-out: Activity
UACC-62 [14] = test: Growth inhibition of human UACC62 cells assessed as cell growth at 5X10'-8 M after 48 hrs by sulforhodamine B assay; details: UACC-62, 48 h, read-out: Activity
SK-MEL-28 [15] = test: Growth inhibition of human SK-MEL-28 cells assessed as cell growth at 5X10'-7 M after 48 hrs by sulforhodamine B assay; details: SK-MEL-28, 48 h, read-out: Activity
BT-549 [16] = test: Growth inhibition of human BT549 cells assessed as cell growth at 5X10'-9 M after 48 hrs by sulforhodamine B assay; details: BT-549, 48 h, read-out: Activity
SK-MEL-2 [17] = test: Growth inhibition of human SK-MEL-2 cells assessed as cell growth at 5X10'-6 M after 48 hrs by sulforhodamine B assay; details: SK-MEL-2, 48 h, read-out: Activity
SN12C = test: Growth inhibition of human SN12C cells assessed as cell growth at 5X10'-9 M after 48 hrs by sulforhodamine B assay; details: read-out: Activity
OVCAR-8 = test: Growth inhibition of human OVCAR8 cells assessed as cell growth at 5X10'-9 M after 48 hrs by sulforhodamine B assay; details: OVCAR-8, 48 h, read-out: Activity
UACC-257 [18] = test: Growth inhibition of human UACC257 cells assessed as cell growth at 5X10'-9 M after 48 hrs by sulforhodamine B assay; details: UACC-257, 48 h, read-out: Activity
SF-268 [19] = test: Growth inhibition of human SF268 cells assessed as cell growth at 5X10'-6 M after 48 hrs by sulforhodamine B assay; details: SF-268, 48 h, read-out: Activity
TK-10 = test: Growth inhibition of human TK10 cells assessed as cell growth at 5X10'-8 M after 48 hrs by sulforhodamine B assay; details: TK-10, 48 h, read-out: Activity
OVCAR-5 [20] = test: Growth inhibition of human OVCAR5 cells assessed as cell growth at 5X10'-6 M after 48 hrs by sulforhodamine B assay; details: OVCAR-5, 48 h, read-out: Activity
UACC-257 [21] = test: Growth inhibition of human UACC257 cells assessed as cell growth at 5X10'-6 M after 48 hrs by sulforhodamine B assay; details: UACC-257, 48 h, read-out: Activity

Row | Structure (SMILES) | growth at 50 µM (SF-268 [1]) [%] | growth at 5 µM (MOLT-4 [2]) [%] | growth at 0.05 µM (SK-MEL-2 [3]) [%] | growth at 5 µM (NCI-H226) [%] | growth at 50 µM (M14) [%] | growth at 5 µM (SK-OV-3) [%] | growth at 5 µM (SK-MEL-28 [4]) [%] | growth at 0.5 µM (HCT-15) [%] | growth at 50 µM (UACC-62 [5]) [%] | growth at 5 µM (RXF 393) [%] | growth at 5 µM (A549 [6]) [%] | growth at 0.5 µM (NCI-H322M) [%] | growth at 0.005 µM (U-251) [%] | growth at 0.005 µM (LOX IMVI) [%] | growth at 0.5 µM [7] [%] | growth at 50 µM (MOLT-4 [8]) [%] | growth at 0.5 µM (CAKI-1) [%] | growth at 5 µM (Malme-3M) [%] | growth at 0.005 µM (IGROV-1) [%] | growth at 50 µM (OVCAR-5 [9]) [%] | further results
1 | O=C(Nc1cccc(-n2cc(-c3ccncc3)c(-c3ccc(Cl)c(O)c3)n2)c1)c1ccc(N2CCOCC2)c(C(F)(F)F)c1 | 30 | 32 | 98 | 100 | -50 | 72 | 5 | 91 | -30 | -18 | 39 | 114 | 101 | 95 | 84 | -5 | 98 | -9 | 103 | 71 | growth at 50 µM (A549 [10]): 4%; growth at 5 µM (HT-29): 79%; growth at 0.005 µM (MOLT-4 [11]): 99%; growth at 5 µM (ACHN): 25%; growth at 50 µM (BT-549 [12]): 36%; growth at 0.05 µM (OVCAR-5 [13]): 97%; growth at 0.5 µM (HCT-116): 99%; growth at 0.05 µM (UACC-62 [14]): 100%; growth at 0.5 µM (SK-MEL-28 [15]): 91%; growth at 0.005 µM (BT-549 [16]): 100%; growth at 5 µM (SK-MEL-2 [17]): 34%; growth at 0.005 µM (SN12C): 98%; growth at 0.005 µM (OVCAR-8): 101%; growth at 0.005 µM (UACC-257 [18]): 100%; growth at 5 µM (SF-268 [19]): 51%; growth at 0.05 µM (TK-10): 92%; growth at 5 µM (OVCAR-5 [20]): 111%; growth at 5 µM (UACC-257 [21]): 57%
2 | O=C(Nc1cccc(-n2cc(-c3ccncc3)c(-c3ccc(Cl)c(O)c3)n2)c1)Nc1cc(C(F)(F)F)cc(C(F)(F)F)c1 | -65 | -5 | 113 | 6 | -86 | -13 | -85 | 49 | -89 | -36 | -33 | 84 | 95 | 98 | 82 | -29 | 74 | -21 | 108 | -89 | growth at 50 µM (A549 [10]): -80%; growth at 5 µM (HT-29): -54%; growth at 0.005 µM (MOLT-4 [11]): 106%; growth at 5 µM (ACHN): 2%; growth at 50 µM (BT-549 [12]): -90%; growth at 0.05 µM (OVCAR-5 [13]): 89%; growth at 0.5 µM (HCT-116): 46%; growth at 0.05 µM (UACC-62 [14]): 92%; growth at 0.5 µM (SK-MEL-28 [15]): 84%; growth at 0.005 µM (BT-549 [16]): 99%; growth at 5 µM (SK-MEL-2 [17]): -28%; growth at 0.005 µM (SN12C): 96%; growth at 0.005 µM (OVCAR-8): 101%; growth at 0.005 µM (UACC-257 [18]): 94%; growth at 5 µM (SF-268 [19]): -27%; growth at 0.05 µM (TK-10): 107%; growth at 5 µM (OVCAR-5 [20]): -54%; growth at 5 µM (UACC-257 [21]): -35%
3 | COc1cc(-c2nn(-c3cccc(NC(=O)c4cccc(C(F)(F)F)c4)c3)cc2-c2ccncc2)ccc1Cl | 8 | 23 | 97 | 18 | 12 | 24 | 34 | 84 | 13 | -17 | 19 | 87 | 94 | 94 | 74 | 16 | 90 | 21 | 102 | 31 | growth at 50 µM (A549 [10]): 9%; growth at 5 µM (HT-29): 5%; growth at 0.005 µM (MOLT-4 [11]): 99%; growth at 5 µM (ACHN): 27%; growth at 50 µM (BT-549 [12]): -1%; growth at 0.05 µM (OVCAR-5 [13]): 90%; growth at 0.5 µM (HCT-116): 92%; growth at 0.05 µM (UACC-62 [14]): 96%; growth at 0.5 µM (SK-MEL-28 [15]): 87%; growth at 0.005 µM (BT-549 [16]): 99%; growth at 5 µM (SK-MEL-2 [17]): 8%; growth at 0.005 µM (SN12C): 97%; growth at 0.005 µM (OVCAR-8): 97%; growth at 0.005 µM (UACC-257 [18]): 105%; growth at 5 µM (SF-268 [19]): 28%; growth at 0.05 µM (TK-10): 97%; growth at 5 µM (OVCAR-5 [20]): 46%; growth at 5 µM (UACC-257 [21]): 56%
